Experimental data reported in ChEMBL document CHEMBL3608229, “Saccharothrixones A-D, Tetracenomycin-Type Polyketides from the Marine-Derived Actinomycete Saccharothrix sp. 10-10” (J Nat Prod, 2015).

How the values were obtained:
Staphylococcus aureus [1] = test: Antibacterial activity against methicillin-susceptible Staphylococcus aureus 15 after 18 hrs by agar dilution method; type: functional; settings: Staphylococcus aureus, 15, 18 h
Enterococcus faecalis [2] = test: Antibacterial activity against vancomycin-resistant Enterococcus faecalis ATCC 51299 after 18 hrs by agar dilution method; type: functional; settings: ATCC 51299, 18 h
Escherichia coli = test: Antibacterial activity against beta-lactamase producing Escherichia coli ATCC 25922 after 18 hrs by agar dilution method; type: functional; settings: ATCC 25922, 18 h
Klebsiella pneumoniae [3] = test: Antibacterial activity against extended spectrum beta-lactamase producing Klebsiella pneumoniae ATCC 700603 after 18 hrs by agar dilution method; type: functional; settings: ATCC 700603, 18 h
Staphylococcus aureus [4] = test: Antibacterial activity against methicillin-resistant Staphylococcus aureus ATCC 33591 after 18 hrs by agar dilution method; type: functional; settings: ATCC 33591, 18 h
Staphylococcus aureus [5] = test: Antibacterial activity against methicillin-resistant Staphylococcus aureus 12-28 after 18 hrs by agar dilution method; type: functional; settings: 12-28, 18 h
Pseudomonas aeruginosa = test: Antibacterial activity against beta-lactamase producing Pseudomonas aeruginosa ATCC 27853 after 18 hrs by agar dilution method; type: functional; settings: ATCC 27853, 18 h
HepG2 = test: Cytotoxicity against human HepG2 cells assessed as growth inhibition after 48 hrs by sulforhodamine B assay; type: functional, cell-based; settings: HepG2, 48 h
Proteus vulgaris = test: Antibacterial activity against beta-lactamase producing Proteus vulgaris ATCC 29905 after 18 hrs by agar dilution method; type: functional; settings: ATCC 29905, 18 h
[6] = tested on: Staphylococcus epidermidis; test: Antibacterial activity against methicillin-resistant Staphylococcus epidermidis 12-6 after 18 hrs by agar dilution method; type: functional; settings: 12-6, 18 h
Staphylococcus aureus [7] = test: Antibacterial activity against methicillin-resistant Staphylococcus aureus 12-33 after 18 hrs by agar dilution method; type: functional; settings: 12-33, 18 h
K562 = test: Cytotoxicity against human K562 cells assessed as growth inhibition after 48 hrs by sulforhodamine B assay; type: functional, cell-based; settings: K562, 48 h
[8] = tested on: Acinetobacter calcoaceticus; test: Antibacterial activity against beta-lactamase producing Acinetobacter calcoaceticus ATCC 19606 after 18 hrs by agar dilution method; type: functional; settings: ATCC 19606, 18 h
[9] = tested on: Staphylococcus epidermidis; test: Antibacterial activity against methicillin-susceptible Staphylococcus epidermidis ATCC 12228 after 18 hrs by agar dilution method; type: functional; settings: ATCC 12228, 18 h
Enterococcus faecium [10] = test: Antibacterial activity against vancomycin-resistant Enterococcus faecium ATCC 700221 after 18 hrs by agar dilution method; type: functional; settings: ATCC 700221, 18 h
Enterococcus faecium [11] = test: Antibacterial activity against vancomycin-resistant Enterococcus faecium 12-1 after 18 hrs by agar dilution method; type: functional; settings: 12-1, 18 h
MCF7 = test: Cytotoxicity against human MCF7 cells assessed as growth inhibition after 48 hrs by sulforhodamine B assay; type: functional, cell-based; settings: MCF7, 48 h
Enterococcus faecium [12] = test: Antibacterial activity against vancomycin-resistant Enterococcus faecium 12-3 after 18 hrs by agar dilution method; type: functional; settings: 12-3, 18 h
Staphylococcus aureus [13] = test: Antibacterial activity against methicillin-susceptible Staphylococcus aureus ATCC 29213 after 18 hrs by agar dilution method; type: functional; settings: ATCC 29213, 18 h
Klebsiella pneumoniae [14] = test: Antibacterial activity against NDM-1 producing Klebsiella pneumoniae ATCC BAA-2146 after 18 hrs by agar dilution method; type: functional; settings: ATCC BAA-2146, 18 h
Enterococcus faecalis [15] = test: Antibacterial activity against vancomycin-susceptible Enterococcus faecalis ATCC 29212 after 18 hrs by agar dilution method; type: functional; settings: ATCC 29212, 18 h
[16] = tested on: Staphylococcus epidermidis; test: Antibacterial activity against methicillin-resistant Staphylococcus epidermidis 12-8 after 18 hrs by agar dilution method; type: functional; settings: 12-8, 18 h
Enterococcus faecalis [17] = test: Antibacterial activity against vancomycin-resistant Enterococcus faecalis 12-5 after 18 hrs by agar dilution method; type: functional; settings: 12-5, 18 h
Enterococcus faecalis [18] = test: Antibacterial activity against vancomycin-resistant Enterococcus faecalis 09-9 after 18 hrs by agar dilution method; type: functional; settings: 09-9, 18 h
Morganella morganii = test: Antibacterial activity against beta-lactamase producing Morganella morganii ATCC 25830 after 18 hrs by agar dilution method; type: functional; settings: ATCC 25830, 18 h

SMILES: COC(=O)c1c(OC)cc2cc3c(c(O)c2c1C)C(=O)O[C@@H]3[C@@]1(O)[C@H](O)C(OC)=CC(=O)[C@@H]1O
- MIC (Staphylococcus aureus [1]): > 64 µg/mL
- MIC (Enterococcus faecalis [2]): > 64 µg/mL
- MIC (Escherichia coli): > 64 µg/mL
- MIC (Klebsiella pneumoniae [3]): > 64 µg/mL
- MIC (Staphylococcus aureus [4]): > 64 µg/mL
- MIC (Staphylococcus aureus [5]): > 64 µg/mL
- MIC (Pseudomonas aeruginosa): > 64 µg/mL
- IC50 (HepG2): > 100 µM
- MIC (Proteus vulgaris): > 64 µg/mL
- MIC [6]: > 64 µg/mL
- MIC (Staphylococcus aureus [7]): > 64 µg/mL
- IC50 (K562): > 100 µM
- MIC [8]: > 64 µg/mL
- MIC [9]: > 64 µg/mL
- MIC (Enterococcus faecium [10]): > 64 µg/mL
- MIC (Enterococcus faecium [11]): > 64 µg/mL
- IC50 (MCF7): > 100 µM
- MIC (Enterococcus faecium [12]): > 64 µg/mL
- MIC (Staphylococcus aureus [13]): > 64 µg/mL
- MIC (Klebsiella pneumoniae [14]): > 64 µg/mL
- MIC (Enterococcus faecalis [15]): > 64 µg/mL
- MIC [16]: > 64 µg/mL
- MIC (Enterococcus faecalis [17]): > 64 µg/mL
- MIC (Enterococcus faecalis [18]): > 64 µg/mL
- MIC (Morganella morganii): > 64 µg/mL

SMILES: COC(=O)c1c(OC)cc2cc3c(c(O)c2c1C)C(=O)O[C@@H]3[C@@]1(O)[C@H](O)C(OC)=CC(=O)[C@@H]1OC
- MIC (Staphylococcus aureus [1]): > 64 µg/mL
- MIC (Enterococcus faecalis [2]): > 64 µg/mL
- MIC (Escherichia coli): > 64 µg/mL
- MIC (Klebsiella pneumoniae [3]): > 64 µg/mL
- MIC (Staphylococcus aureus [4]): > 64 µg/mL
- MIC (Staphylococcus aureus [5]): > 64 µg/mL
- MIC (Pseudomonas aeruginosa): > 64 µg/mL
- IC50 (HepG2): > 100 µM
- MIC (Proteus vulgaris): > 64 µg/mL
- MIC [6]: > 64 µg/mL
- MIC (Staphylococcus aureus [7]): > 64 µg/mL
- IC50 (K562): > 100 µM
- MIC [8]: > 64 µg/mL
- MIC [9]: > 64 µg/mL
- MIC (Enterococcus faecium [10]): > 64 µg/mL
- MIC (Enterococcus faecium [11]): > 64 µg/mL
- IC50 (MCF7): > 100 µM
- MIC (Enterococcus faecium [12]): > 64 µg/mL
- MIC (Staphylococcus aureus [13]): > 64 µg/mL
- MIC (Klebsiella pneumoniae [14]): > 64 µg/mL
- MIC (Enterococcus faecalis [15]): > 64 µg/mL
- MIC [16]: > 64 µg/mL
- MIC (Enterococcus faecalis [17]): > 64 µg/mL
- MIC (Enterococcus faecalis [18]): > 64 µg/mL
- MIC (Morganella morganii): > 64 µg/mL

SMILES: COC(=O)c1c(OC)cc2cc3c(c(O)c2c1C)C(=O)O[C@H]3[C@@]1(O)[C@H](O)C(OC)=CC(=O)[C@H]1OC
- MIC (Staphylococcus aureus [1]): > 64 µg/mL
- MIC (Enterococcus faecalis [2]): > 64 µg/mL
- MIC (Escherichia coli): > 64 µg/mL
- MIC (Klebsiella pneumoniae [3]): > 64 µg/mL
- MIC (Staphylococcus aureus [4]): > 64 µg/mL
- MIC (Staphylococcus aureus [5]): > 64 µg/mL
- MIC (Pseudomonas aeruginosa): > 64 µg/mL
- IC50 (HepG2): > 100 µM
- MIC (Proteus vulgaris): > 64 µg/mL
- MIC [6]: > 64 µg/mL
- MIC (Staphylococcus aureus [7]): > 64 µg/mL
- IC50 (K562): > 100 µM
- MIC [8]: > 64 µg/mL
- MIC [9]: > 64 µg/mL
- MIC (Enterococcus faecium [10]): > 64 µg/mL
- MIC (Enterococcus faecium [11]): > 64 µg/mL
- IC50 (MCF7): > 100 µM
- MIC (Enterococcus faecium [12]): > 64 µg/mL
- MIC (Staphylococcus aureus [13]): > 64 µg/mL
- MIC (Klebsiella pneumoniae [14]): > 64 µg/mL
- MIC (Enterococcus faecalis [15]): > 64 µg/mL
- MIC [16]: > 64 µg/mL
- MIC (Enterococcus faecalis [17]): > 64 µg/mL
- MIC (Enterococcus faecalis [18]): > 64 µg/mL
- MIC (Morganella morganii): > 64 µg/mL
